Target: T1, 4,6-αGT-ML4 (Limosilactobacillus reuteri, UniProt Q5SBN1)
T1 construct: full-length 180 kDa
Assay: 1H NMR / TLC / HPAEC of product mixture
Type: biochemical
Conditions: sodium acetate 25 mM pH 4.7, 1 mM CaCl2, 37 °C, 40 h, 25 μg/ml enzyme

T1 sequence (Q5SBN1 entry or part of it): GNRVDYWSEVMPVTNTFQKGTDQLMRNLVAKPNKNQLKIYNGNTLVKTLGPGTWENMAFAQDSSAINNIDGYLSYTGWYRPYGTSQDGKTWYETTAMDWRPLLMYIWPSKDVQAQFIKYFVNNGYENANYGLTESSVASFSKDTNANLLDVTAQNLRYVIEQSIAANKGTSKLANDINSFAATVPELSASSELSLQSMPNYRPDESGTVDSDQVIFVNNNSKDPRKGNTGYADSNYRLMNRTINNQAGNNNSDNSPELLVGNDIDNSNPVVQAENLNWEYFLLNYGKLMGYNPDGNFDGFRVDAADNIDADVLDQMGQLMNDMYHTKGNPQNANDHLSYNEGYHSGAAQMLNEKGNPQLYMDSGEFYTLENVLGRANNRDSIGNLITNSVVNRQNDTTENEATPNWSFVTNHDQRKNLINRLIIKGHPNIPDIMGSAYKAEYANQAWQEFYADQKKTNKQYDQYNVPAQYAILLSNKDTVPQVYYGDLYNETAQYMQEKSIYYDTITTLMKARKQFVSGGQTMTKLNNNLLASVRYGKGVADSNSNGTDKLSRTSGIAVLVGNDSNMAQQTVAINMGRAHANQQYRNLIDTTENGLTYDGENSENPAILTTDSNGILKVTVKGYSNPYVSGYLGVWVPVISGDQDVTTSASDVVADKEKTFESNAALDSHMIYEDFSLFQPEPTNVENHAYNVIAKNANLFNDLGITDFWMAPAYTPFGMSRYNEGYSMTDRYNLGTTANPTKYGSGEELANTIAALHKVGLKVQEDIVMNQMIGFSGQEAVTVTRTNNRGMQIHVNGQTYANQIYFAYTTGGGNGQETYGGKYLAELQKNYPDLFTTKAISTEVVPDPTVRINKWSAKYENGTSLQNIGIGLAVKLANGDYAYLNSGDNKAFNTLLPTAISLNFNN

SMILES: OC[C@H]1O[C@H](O[C@H]2[C@H](O)[C@@H](O)[C@@H](O[C@H]3[C@H](O)[C@@H](O)[C@@H](O[C@H]4[C@H](O)[C@@H](O)[C@@H](O[C@H]5[C@H](O)[C@@H](O)[C@@H](O[C@H]6[C@H](O)[C@@H](O)C(O)O[C@@H]6CO)O[C@@H]5CO)O[C@@H]4CO)O[C@@H]3CO)O[C@@H]2CO)[C@H](O)[C@@H](O)[C@@H]1O (stereo partly shown) [DP6, maltohexaose]
- 1H NMR / TLC / HPAEC of product mixture: generated from maltohexaose, showing a linkage ratio

— article PMC3536977, “4,6-α-Glucanotransferase activity occurs more widespread in Lactobacillus strains and constitutes a separate GH70 subfamily” (Applied Microbiology and Biotechnology, 2012)
